Tests used:
Jurkat [1] = assay: confluency relative to DMSO, 18 h (ratio); higher = more viable
Method in brief: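 Naive or CD3/CD28 Dynabead-activated (48 h) primary CD4+/CD8+ T cells, or Jurkat cells, received compound at 1 nM–10 µM for 18 h at 37 °C. Confluency was measured by IncuCyte phase-contrast imaging with the Basic Analyzer and normalised to the mean of the control wells. Imaging used 100 µl of suspension per well in 96-well plates with IncuCyte Cytotox Dye and alamarBlue, at ×10 with five images per well every hour for 3 h.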

Jurkat [2] = assay: cytotoxicity relative to DMSO, 18 h (ratio); higher = less cell death (drugs called cytotoxic fall below 1)
Method in brief: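 Jurkat or primary CD4+/CD8+ T cells (naive, or activated 48 h with CD3/CD28 Dynabeads) were treated 18 h with compound at 1 nM–10 µM (log10 steps) at 37 °C, 5% CO2. Then 100 µl of suspension went into 96-well plates with IncuCyte Cytotox Dye (250 nM final). Cytotoxicity came from IncuCyte fluorescence imaging (×10, five images per well, hourly over 3 h). Signals were corrected for confluency, then normalised to mean DMSO controls.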

Jurkat [3] = assay: metabolic activity relative to DMSO, 18 h (ratio); higher = more viable
Method in brief: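 Naive or CD3/CD28 Dynabead-activated (48 h) primary CD4+/CD8+ T cells, or Jurkat cells, received compound at 1 nM–10 µM for 18 h. Readout used alamarBlue at 10% v/v final, with fluorescence taken after 3.5 h. Metabolic activity is given relative to mean vehicle control values.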

| Structure (SMILES) | confluency (Jurkat [1]; 1 nM) | confluency (Jurkat [1]; 10 nM) | confluency (Jurkat [1]; 100 nM) | confluency (Jurkat [1]; 1000 nM) | confluency (Jurkat [1]; 10000 nM) | cytotoxicity (Jurkat [2]; 1 nM) | cytotoxicity (Jurkat [2]; 10 nM) | cytotoxicity (Jurkat [2]; 100 nM) | cytotoxicity (Jurkat [2]; 1000 nM) | cytotoxicity (Jurkat [2]; 10000 nM) | metabolic activity (Jurkat [3]; 1 nM) | metabolic activity (Jurkat [3]; 10 nM) | metabolic activity (Jurkat [3]; 100 nM) | metabolic activity (Jurkat [3]; 1000 nM) | metabolic activity (Jurkat [3]; 10000 nM) |
| --- | --- | --- | --- | --- | --- | --- | --- | --- | --- | --- | --- | --- | --- | --- | --- |
| CCS(=O)(=O)N1CC(CC#N)(n2cc(-c3ncnc4[nH]ccc34)cn2)C1 [Baricitinib] | 0.989 | 0.95 | 0.965 | 0.879 | 0.812 | 0.929 | 0.913 | 1.02 | 0.869 | 0.802 | 0.956 | 1.04 | 1.22 | 1.11 | 0.878 |
| O=C(C=Cc1cccc(S(=O)(=O)Nc2ccccc2)c1)NO [Belinostat] | 1.04 | 1.07 | 0.966 | 1.02 | 0.87 | 1.08 | 1.14 | 1.07 | 1.18 | 0.932 | 0.982 | 1.06 | 1.09 | 0.811 | 0.635 |
| Cn1cnc2c(F)c(Nc3ccc(Br)cc3F)c(C(=O)NOCCO)cc21 [Binimetinib] | 1 | 1.01 | 0.975 | 0.959 | 0.989 | 1.13 | 1.22 | 1 | 0.926 | 0.948 | 1.13 | 1.12 | 0.989 | 0.909 | 0.933 |
| CC(C)CC(NC(=O)C(Cc1ccccc1)NC(=O)c1cnccn1)B(O)O (stereo not given) [Bortezomib] | 0.99 | 0.969 | 0.721 | 0.934 | 0.951 | 1.02 | 0.944 | 0.569 | 0.531 | 0.539 | 1.2 | 1.13 | 0.556 | 0.181 | 0.149 |
| COc1cc(N2CCC(N3CCN(C)CC3)CC2)ccc1Nc1ncc(Cl)c(Nc2ccccc2P(C)(C)=O)n1 [Brigatinib] | 0.851 | 1.08 | 1.14 | 1.13 | 1.07 | 0.701 | 0.654 | 0.641 | 0.614 | 0.565 | 0.883 | 0.946 | 0.911 | 0.83 | 0.766 |
| CCOC(=O)Nc1cc(-c2ccc(C)c(NS(C)(=O)=O)c2)nn2c(C)nnc12 [Bromosporine] | 0.963 | 1 | 1.02 | 1.2 | 1.18 | 0.92 | 0.952 | 0.977 | 1.19 | 1.11 | 0.994 | 0.938 | 0.79 | 0.846 | 0.811 |
| Nc1cc(C(F)(F)F)c(-c2cc(N3CCOCC3)nc(N3CCOCC3)n2)cn1 [Buparlisib] | 1.04 | 1.05 | 0.999 | 1.02 | 0.756 | 1.03 | 1.06 | 0.975 | 0.987 | 0.6 | 0.939 | 0.925 | 0.834 | 0.742 | 0.377 |
| O=c1cc(-c2ccccc2F)[nH]c2cc3c(cc12)OCO3 [CHM-1] | 0.973 | 0.963 | 0.976 | 0.71 | 0.588 | 0.961 | 0.929 | 0.919 | 0.618 | 0.461 | 1.02 | 1.07 | 0.992 | 0.688 | 0.704 |
| O=C(O)C1(C(=O)O)CCC1.[NH2-].[NH2-].[Pt+2] [Carboplatin] | 0.969 | 0.997 | 0.974 | 0.995 | 0.951 | 0.95 | 1.07 | 0.984 | 0.993 | 0.905 | 0.863 | 0.781 | 0.818 | 0.83 | 0.819 |
| CC(C)CC(NC(=O)C(CCc1ccccc1)NC(=O)CN1CCOCC1)C(=O)NC(Cc1ccccc1)C(=O)NC(CC(C)C)C(=O)C1(C)CO1 (stereo not given) [Carfilzomib] | 1 | 0.909 | 0.803 | 0.867 | 0.818 | 1.02 | 0.883 | 0.531 | 0.572 | 0.543 | 1.02 | 0.882 | 0.128 | 0.113 | 0.13 |
| CCS(=O)(=O)N1CCN(c2ccc(Nc3ncc(C(N)=O)c(NC4CC4)n3)cc2)CC1 [Cerdulatinib] | 1.04 | 1.09 | 0.975 | 0.903 | 1.07 | 1.03 | 1.02 | 0.925 | 0.858 | 0.921 | 0.846 | 0.868 | 0.898 | 0.941 | 0.775 |
| N.N.[Cl][Pt][Cl] [Cisplatin] | 0.99 | 1.09 | 1.01 | 0.934 | 1.03 | 0.845 | 0.582 | 0.996 | 0.984 | 1.13 | 0.96 | 0.989 | 0.983 | 0.939 | 1.02 |
| O=C(CCCCCCNC(=O)c1cnc(N(c2ccccc2)c2ccccc2Cl)nc1)NO [Citarinostat] | 0.975 | 1 | 0.987 | 0.98 | 0.949 | 1.03 | 1.04 | 0.967 | 0.941 | 0.871 | 0.94 | 1.02 | 0.916 | 0.886 | 0.632 |

Source: the supplement of paper PMC11919725
